Laboratory results as given in patent US4950676A, “Amino-esters of dihydropyridines, and their use as circulatory agents for treating ischaemic heart diseases” (Bayer Aktiengesellschaft, priority 1986, dated 1990).
Converted amounts (≈) assume the structure as drawn.

Experiments:
anaesthetized cats [1] = details: statement on known substances; in words; cited from earlier work
isolated aortic ring [2] = assay: contraction of isolated rabbit aortic ring stimulated by KCl depolarization (calcium-antagonistic action); details: Oryctolagus cuniculus, isolated aortic ring from rabbits, read-out: IC50 a (active compound concentration at which the contraction of the aortic ring is inhibited by 50%)
From the text: (§1) The specific calcium-antagonistic action of the compounds according to the invention is examined in a test on isolated rabbit vessels (aorta). In this test, contractions of the vascular muscle are caused in vitro by stimulation with KCl or by noradrenaline. KCl causes contractions due to the depolarization-dependent inwards flow of calcium ions.
(§2) These contractions are inhibited by calcium-antagonistic drugs as a function of the dose. Noradrenaline causes contractions by stimulation of the vascular alpha-receptors and the resulting release of calcium ions from the intracellular stores. The noradrenaline-induced contractions are not inhibited by specific calcium antagonists. In contrast, antagonists of the alpha-adrenoreceptors inhibit only the noradrenaline-induced contraction.
(§3) Table 1: Active compound concentration at which the contraction of the aortic ring is inhibited by 50% (IC50)
(§4) Isolated aortic ring from rabbits, stimulated
(a) by KCl depolarization or […]

isolated aortic ring [3] = assay: contraction of isolated rabbit aortic ring stimulated by noradrenaline (alpha-receptor); details: Oryctolagus cuniculus, isolated aortic ring from rabbits, read-out: IC50 b (active compound concentration at which the contraction of the aortic ring is inhibited by 50%)
From the text: as §1, §2, §3, §4

hypertensive rats = assay: arterial blood pressure of conscious spontaneously hypertensive rats (tail cuff) after oral administration; type: in vivo, rat (spontaneously hypertensive rats of the Okamoto strain); details: Rattus norvegicus, peroral, read-out: ED20 (reduction in blood pressure in hypertensive rats by 20 mm Hg)
Protocol: The compounds according to the invention are also active after oral administration. The arterial blood pressure of conscious rats with hypertension of genetic origin ("spontaneously hypertensive rats" of the Okamoto strain) is measured bloodlessly with a "tail cuff" at defined intervals of time after administration of the substance. The substances to be tested are suspended in a Tylose suspension and administered intragastrally ("orally") in various doses by means of a stomach tube. The compounds according to the invention reduce the arterial blood pressure of hypertensive rats in a clinically relevant dosage (see Table 3).
Table 3: Reduction in blood pressure in hypertensive rats by 20 mm Hg (ED20)

anaesthetized cats [4] = assay: vein volume of an extremity by plethysmography with simultaneous arterial blood pressure recording in anaesthetized cats; type: in vivo, cat; details: Felis catus, iv; anaesthetized cats (ketamine), i.v., in comparison with the reference sodium nitroprusside; read-out: Dose giving significant increase in vein capacity
Protocol: The vein volume of an extremity is measured by plethysmography on anaesthetized cats (ketamine). The arterial blood pressure is also recorded at the same time. Calcium-antagonistic DHP derivatives known hitherto reduce the arterial blood pressure and reduce the vein volume by reflectory vein constriction.
Table 2: Significant increase in vein capacity in anaesthetized cats in comparison with the reference active substance sodium nitroprusside.

IC50 (isolated aortic ring [2])	IC50 (isolated aortic ring [3])	SMILES	vein volume (known substances) (anaesthetized cats [1])	ED (20 mm Hg) (hypertensive rats)	minimal effective dose (anaesthetized cats [4])
–	–	Cc1ccc(N(CC2=NCCN2)c2cccc(O)c2)cc1 [phentolamine]	increase in the vein volume	–	–
0.9 µg/mL (≈ 0.931 µM)	3 µg/mL (≈ 3.1 µM)	COC(=O)C1=C(C)NC(C)=C(C(=O)OCCCCCCN(CCN(Cc2ccccc2)C(C)COc2ccccc2)CCN(Cc2ccccc2)C(C)COc2ccccc2)C1c1cccc([N+](=O)[O-])c1 (stereo not drawn) [Example 2, 3-Methyl 5-{6-[bis-[2-[N-benzyl-N-(2-phenoxy-1-methylethyl)amino]ethyl]amino]hexyl}1,4-dihydro-2,6-dimethyl-4-(3-nitrophenyl)-pyridine-3,5-dicarboxylate]	–	–	–
0.23 µg/mL (≈ 0.343 µM)	> 10 µg/mL	CC1=C(C(=O)OCCNCCN(Cc2ccccc2)C(C)COc2ccccc2)C(c2cccc([N+](=O)[O-])c2)C(C(=O)OC(C)C)=C(C)N1 (stereo not drawn) [Example 3, 3-Isopropyl 5-{2-[2-[N-benzyl-N-(2-phenoxy-1-methylethyl)amino]ethylamino]ethyl}1,4-dihydro-2,6-dimethyl-4-(3-nitrophenyl)pyridine-3,5-dicarboxylate]	–	–	–
0.4 µg/mL (≈ 0.426 µM)	5 µg/mL (≈ 5.33 µM)	CC1=C(C(=O)OCCN(CCN(Cc2ccccc2)C(C)COc2ccccc2)CCN(Cc2ccccc2)C(C)COc2ccccc2)C(c2cccc([N+](=O)[O-])c2)C(C(=O)OC(C)C)=C(C)N1 (stereo not drawn) [Example 4, 3-Isopropyl 5-(2-[bis-[2-[N-benzyl-N-(2-phenoxy-1-methylethyl)amino]ethyl]amino]ethyl}1,4-dihydro-2,6-dimethyl-4-(3-nitrophenyl)-pyridine-3,5-dicarboxylate]	–	–	–
0.3 µg/mL (≈ 0.462 µM)	1.6 µg/mL (≈ 2.47 µM)	COc1ccc2c(c1OC)CCN1CCC(NCCOC(=O)C3=C(C)NC(C)=C(C(=O)OC(C)C)C3c3cccc([N+](=O)[O-])c3)CC21 (stereo not drawn) [Example 8, 3-Isopropyl 5-[2-(1,3,4,6,7,11b-hexahydro-8,9-dimethoxy-2H-benzo[a]quinolizin-2-yl-amino)ethyl]1,4-dihydro-2,6-dimethyl-4-(3-nitrophenyl)pyridine-3,5-dicarboxylate]	–	31.5 mg/kg	–
0.016 µg/mL (≈ 0.029 µM)	0.4 µg/mL (≈ 0.725 µM)	CC1=C(C(=O)OCCNCC2COc3ccccc3O2)C(c2cccc([N+](=O)[O-])c2)C(C(=O)OC(C)C)=C(C)N1 (stereo not drawn) [Example 12, 3-Isopropyl 5-[2-(1,4-benzodioxan-2-yl-methylamino)ethyl]1,4-dihydro-2,6-dimethyl-4-(3-nitrophenyl)pyridine-3,5-dicarboxylate]	–	–	0.1 mg/kg
0.23 µg/mL (≈ 0.428 µM)	0.18 µg/mL (≈ 0.335 µM)	COC(=O)C1=C(C)NC(C)=C(C(=O)OCCN(C)CC2COc3ccccc3O2)C1c1cccc([N+](=O)[O-])c1 (stereo not drawn) [Example 11, 3-Methyl 5-{2-[N-(1,4-benzodioxan-2-yl-methyl)-N-methylamino]ethyl}1,4-dihydro-2,6-dimethyl-4-(3-nitrophenyl)pyridine-3,5-dicarboxylate]	–	3 mg/kg	0.1 mg/kg
0.26 µg/mL (≈ 0.419 µM)	0.36 µg/mL (≈ 0.58 µM)	COC(=O)C1=C(C)NC(C)=C(C(=O)OCCNC2CCN3CCc4c(ccc(OC)c4OC)C3C2)C1c1cccc([N+](=O)[O-])c1 (stereo not drawn) [Example 6]	–	1 mg/kg	–
0.08 µg/mL (≈ 0.153 µM)	0.7 µg/mL (≈ 1.34 µM)	COC(=O)C1=C(C)NC(C)=C(C(=O)OCCNCC2COc3ccccc3O2)C1c1cccc([N+](=O)[O-])c1 (stereo not drawn) [Example 13, 3-Methyl 5-[2-(1,4-benzodioxan-2-yl-methylamino)ethyl]1,4-dihydro-2,6-dimethyl-4-(3-nitrophenyl)pyridine-3,5-dicarboxylate]	–	3 mg/kg	–
–	–	COC(=O)[C@@H]1[C@H]2C[C@H]3c4[nH]c5ccccc5c4CCN3C[C@@H]2CC[C@@H]1O [yohimbine]	increase in the vein volume	–	–
–	–	COc1ccc2c(c1)CCN1CCC(NCCOC(=O)C3=C(C)NC(C)=C(C(=O)OC(C)C)C3c3cccc([N+](=O)[O-])c3)CC21 (stereo not drawn) [Example 9, 3-Isopropyl 5-[2-(1,3,4,6,7,11b-hexahydro-9-methoxy-2H-benzo[a]quinolizin-2-yl)amino]ethyl 1,4-dihydro-2,6-dimethyl-4-(3-nitrophenyl)pyridine-3,5-dicarboxylate]	–	–	1 mg/kg
0.5 µg/mL (≈ 0.754 µM)	1.4 µg/mL (≈ 2.11 µM)	COc1ccc2c(c1OC)CCN1CCC(NCCCOC(=O)C3=C(C)NC(C)=C(C(=O)OC(C)C)C3c3cccc([N+](=O)[O-])c3)CC21 (stereo not drawn) [Example 7, 3-Isopropyl 5-[3-(1,3,4,6,7,11b-hexahydro-8,9-dimethoxy-2H-benzo[a]quinolizin-2-yl-amino)propyl]1,4-dihydro-2,6-dimethyl-4-(3-nitrophenyl)pyridine-3,5-dicarboxylate]	–	31.5 mg/kg	–
0.23 µg/mL (≈ 0.329 µM)	> 10 µg/mL	COC(=O)C1=C(C)NC(C)=C(C(=O)OCCCCCCNCCN(Cc2ccccc2)C(C)COc2ccccc2)C1c1cccc([N+](=O)[O-])c1 (stereo not drawn) [Example 1, 3-Methyl 5-{6-[2-[N-benzyl-N-(2-phenoxy-1-methylethyl)amino]ethylamino]hexyl}1,4-dihydro-2,6-dimethyl-4-(3-nitrophenyl)-pyridine-3,5-dicarboxylate]	–	–	–
